Like-named read-outs stand apart in the source and are kept apart here.
Key:
[1] = test system: velvetleaf (Abutilon theophrasti) (ABUTH); assay: post-emergent herbicidal test, velvetleaf; format: in vivo; conditions: Abutilon theophrasti, post-emergence, read-out: ABUTH percent control; for pest or weed control at 4000 g/ha: 4.0 kg/ha
From the text: (§1) Seeds of several different weed species were planted in sandy loam soil containing only trace organic matter. Propagules were sown in individuals rows using one species per row across the width of an aluminum flat (19.5×9.5×6 cm). The grass weeds planted were green foxtail (Setaria viridis) ("SETVI"), wild oat (Avena fatua) ("AVEFA"), barnyard grass (Enchinochloa crusgalli) ("ECHCG"). Broadleaf weeds utilized were wild mustard (Brassica kaber), also known as Sinapis arvensis, ("SINAR"), velvetleaf (Abutilon theophrasti) ("ABUTH") and morningglory (Ipomoea spp.) ("IPOSS"). Additionally, yellow nutsedge (Cyperus esculentus) ("CYPES"), nutlets were sown. Seeding depths ranged from 1.0 to 1.5 cm and plant densities ranged from 3 to 25 plants per row depending on individual plant species.
(§2) The flats were placed into a greenhouse and watered overhead by sprinkling. The greenhouse environmental systems provided the plants with natural and artificial (via metal halide lamps) lighting to attain 14 hours of light per day. Day and night temperatures were maintained at 29° and 21° C. respectively. The plants were grown for 10 to 12 days (or to the appropriate growth stage) prior to compound application. Grasses were sprayed at a 3 to 4 leaf stage and broadleaves at a 1 to 2 leaf stage. Yellow nutsedge was 5 to 7 cm tall at application.
(§3) Solutions of the test compounds were prepared by weighing out 18.8 and 74.7 mg for 1 and 4 kg/ha applications respectively, of the test compound into a 60 ml wide-mouth bottle, then dissolving the compound in 14.0 ml of deionized water containing 0.5% v/v Tween 20' (polyoxyethylene sorbitan monolaurate emulsifier) as a surfactant. Additional solvents, not exceeding 2 ml (15% of spray volume), were used if needed to dissolve the compound.
(§4) The plants were sprayed inside an enclosed linear spray table with the nozzle set at 30.5 cm (12 inches) above the foliage.
(§5) Treated plants were then returned to a greenhouse and watered daily without wetting the foliage.
(§6) The degree of weed control was evaluated 17-21 days after application and recorded as percentage of control as compared to the growth of the same species in an untreated control flat of the same. Percent control is the total injury to the plants due to all factors including: inhibited emergence, stunting, malformation, chlorosis and other types of plant injury. The control ratings range from 0 to 100 percent, where 0% represents no effect with growth equal to the untreated control and where 100% represents complete kill.

[2] = test system: morningglory (Ipomoea spp.) (IPOSS); assay: post-emergent herbicidal test, morningglory; format: in vivo; conditions: Ipomoea, post-emergence, read-out: IPOSS percent control; for pest or weed control at 4000 g/ha: 4.0 kg/ha
From the text: as §1, §2, §3, §4, §5, §6

[3] = test system: wild oat (Avena fatua) (AVEFA); assay: post-emergent herbicidal test, wild oat; format: in vivo; conditions: Avena fatua, post-emergence, read-out: AVEFA percent control; for pest or weed control at 4000 g/ha: 4.0 kg/ha
From the text: as §1, §2, §3, §4, §5, §6

[4] = test system: barnyard grass (Enchinochloa crusgalli) (ECHCG); assay: post-emergent herbicidal test, barnyard grass; format: in vivo; conditions: Echinochloa crus-galli, post-emergence, read-out: ECHCG percent control; for pest or weed control at 4000 g/ha: 4.0 kg/ha
From the text: as §1, §2, §3, §4, §5, §6

[5] = test system: green foxtail (Setaria viridis) (SETVI); assay: post-emergent herbicidal test, green foxtail; format: in vivo; conditions: Setaria viridis, post-emergence, read-out: SETVI percent control; for pest or weed control at 4000 g/ha: 4.0 kg/ha
From the text: as §1, §2, §3, §4, §5, §6

[6] = test system: yellow nutsedge (Cyperus esculentus) (CYPES); assay: post-emergent herbicidal test, yellow nutsedge; format: in vivo; conditions: Cyperus, post-emergence, read-out: CYPES percent control; for pest or weed control at 4000 g/ha: 4.0 kg/ha
From the text: as §1, §2, §3, §4, §5, §6

[7] = test system: wild mustard (Brassica kaber), also known as Sinapis arvensis (SINAR); assay: post-emergent herbicidal test, wild mustard; format: in vivo; conditions: Brassica, post-emergence, read-out: SINAR percent control; for pest or weed control at 4000 g/ha: 4.0 kg/ha
From the text: as §1, §2, §3, §4, §5, §6

[8] = test system: farnesyl pyrophosphate synthase in daffodil chromoplasts; assay: inhibition of farnesyl pyrophosphate synthase in daffodil chromoplasts (14C-isopentenyl pyrophosphate incorporation); format: biochemical, Narcissus pseudonarcissus; conditions: unit inferred, IC50 values in nM, read-out: IC50
Procedure: The IC50 value may be determined as follows. Daffodil chromoplasts are diluted to a volume of 500 microliters in a buffer containing 0.5M sucrose, 3 mM MgCl2, 1 mM ethylenediaminetetraacetic acid, 20 mM N-tris[hydroxymethyl]methyl-2-aminoethanesulfonic acid, […] N-[2-hydroxyethyl]-piperazine-N'-[2-ethanesulfonic acid], 5 mM L-cysteine, 10 mM sodium fluoride, and 0.1% bovine serum albumin at pH 7.7. The inhibitor to be tested may be dissolved in water other suitable solvent and then added to the reaction mixture. The assay is started by the addition of ^14 C-labeled isopentenyl pyrophosphate (52 Ci/mol) to give a final concentration in the assay of about 3 micromolar. The mixture is incubated at 30° C. with gentle agitation for a period of about 30 min. The reaction may be stopped by the addition of 0.5 mL of saturated NaCl and 2 mL of n-butanol saturated with water. After thorough mixing, the turbid suspensions are centrifuged briefly to separate the layers, and 1 mL of the bright yellow upper butanol layer is added to 10 mL of a suitable scintillation fluid which gives a single phase. The butanol soluble radioactivity is then measured in a scintillation counter.
In addition, the problem of variable quenching differences among different experiments can be essentially eliminated by determining the incorporation of radioactivity relative to controls. Each set of experiments requires two control tubes identical to the test samples except that they contain no inhibitor. One of these is quenched immediately (TO sample) and one is quenched at the end of the normal incubation period (T100 sample).
For each concentration of inhibitor examined the % residual activity is determined from the formula [formula]
Tightly closed daffodil flowers (Narcissus pseudonarcissus) were allowed to open at room temperature. […] Coronae were placed in twice their weight of isolation buffer consisting of 67 mM potassium phosphate, 0.74M sucrose, 5 mM MgCl2, and 0.2% polyvinyl-pyrrolidone at pH 7.6 and were disrupted by 30 seconds of homogenization at high speed in a Waring-type blender. The mixture was filtered through several layers of cheesecloth and 2 layers of 100 micron nylon mesh, and the resulting filtrate was centrifuged at 1000×g for 10 minutes. The pellet was discarded and supernatant was centrifuged at 22,000×g for 20 minutes. […] This solution was centrifuged at 22,000×g for 20 minutes to give orange pellets which were suspended in a buffer of 100 mM tris(hydroxymethyl)aminomethane at pH 7.6 containing 5mM MgCl2 and 2 mM dithiothreitol (1 ml per 10 coronae). This solution was frozen in liquid nitrogen and then stored at -80° C.
Thawed daffodil chromoplasts (100-150 microliters) were diluted to a final volume of 500 microliters in a buffer containing 0.5M sucrose, 3 mM MgCl2, 1 mM ethylenediaminetetraacetic acid, 10 mM N-[2-hydroxyethyl]piperazine-N^1 -[2-ethanesulfonic acid], 5 mM L-cysteine, 10 mM sodium fluoride, and 0.1% bovine serum albumin at pH 7.7. The inhibitor to be tested was dissolved in water or other suitable solvent and was added to the reaction mixture. The assay was started by the addition of ^14 C-labeled isopentenyl pyrophosphate (52 Ci/mol) to give a final concentration in the assay of about 3 micromolar. The mixture was incubated at 30° C. with gentle agitation for a period of about 30 minutes. The reaction was stopped by the addition of 0.5 mL of saturated NaCl and 2 mL of n-butanol saturated with water. After thorough mixing, the turbid suspensions were centrifuged briefly to separate the layers, and 1 mL of the bright yellow upper butanol layer was added to 10 mL of a suitable scintillation fluid which gave a single phase. The butanol soluble radioactivity was then measured in a scintillation counter. Each set of experiments required two control tubes identical to the test samples except that they contain no inhibitor.

[9] = post-emergent, 17-21 days after application
[10] = post-emergent, 1.0 kg/ha (*), 17-21 days after application

| SMILES | IC50 ([8]; Table I) [nM] | IC50 ([8]; Table II) [nM] | pest or weed control at 4000 g/ha [1, 9] [%] | pest or weed control at 4000 g/ha [2, 9] [%] | pest or weed control at 4000 g/ha [3, 9] [%] | pest or weed control at 4000 g/ha [4, 9] [%] | pest or weed control at 4000 g/ha [5, 9] [%] | pest or weed control at 4000 g/ha [6, 9] [%] | pest or weed control at 4000 g/ha [7, 9] [%] | pest or weed control at 1000 g/ha [1, 10] [%] | pest or weed control at 1000 g/ha [2, 10] [%] | pest or weed control at 1000 g/ha [3, 10] [%] | pest or weed control at 1000 g/ha [4, 10] [%] | pest or weed control at 1000 g/ha [5, 10] [%] | pest or weed control at 1000 g/ha [6, 10] [%] | pest or weed control at 1000 g/ha [7, 10] [%] | other results |
| --- | --- | --- | --- | --- | --- | --- | --- | --- | --- | --- | --- | --- | --- | --- | --- | --- | --- |
| CC1CCC(C)N1CC(P(=O)(O)O)P(=O)(O)O (stereo not drawn) [Compound 11] | 650 | 610 | 0 | 30 | 30 | 50 | 50 | 0 | 95 |  |  |  |  |  |  |  |  |
| CCCCNCC(P(=O)(O)O)P(=O)(O)O [Compound 14] | 347 | 347 |  |  |  |  |  |  |  | 20 | 10 | 70 | 90 | 95 | 15 | 85 |  |
| CONCC(P(=O)(O)O)P(=O)(O)O [Compound 15] | 6310 | 6310 |  |  |  |  |  |  |  |  |  |  |  |  |  |  | pest or weed control at 1000 g/ha [1]: 0%; pest or weed control at 1000 g/ha [2]: 0%; pest or weed control at 1000 g/ha [3]: 0%; pest or weed control at 1000 g/ha [4]: 0%; pest or weed control at 1000 g/ha [5]: 0%; pest or weed control at 1000 g/ha [6]: 0%; pest or weed control at 1000 g/ha [7]: 0% |
| CCCCCCNCC(P(=O)(O)O)P(=O)(O)O [Compound 17] | 316 | 316 |  |  |  |  |  |  |  | 0 | 10 | 75 | 50 | 60 | 0 | 50 |  |
| C=CCNCC(P(=O)(O)O)P(=O)(O)O [Compound 18] | 26 | 26 |  |  |  |  |  |  |  |  |  |  |  |  |  |  | pest or weed control at 1000 g/ha [1]: 30%; pest or weed control at 1000 g/ha [2]: 70%; pest or weed control at 1000 g/ha [3]: 100%; pest or weed control at 1000 g/ha [4]: 98%; pest or weed control at 1000 g/ha [5]: 98%; pest or weed control at 1000 g/ha [6]: 50%; pest or weed control at 1000 g/ha [7]: 100% |

More lines, main results first:

| IC50 ([8]; Table I) [nM] | IC50 ([8]; Table II) [nM] | SMILES | pest or weed control at 4000 g/ha [1, 9] [%] | pest or weed control at 4000 g/ha [2, 9] [%] | pest or weed control at 4000 g/ha [3, 9] [%] | pest or weed control at 4000 g/ha [4, 9] [%] | pest or weed control at 4000 g/ha [5, 9] [%] | pest or weed control at 4000 g/ha [6, 9] [%] | pest or weed control at 4000 g/ha [7, 9] [%] | pest or weed control at 1000 g/ha [1, 10] [%] | pest or weed control at 1000 g/ha [2, 10] [%] | pest or weed control at 1000 g/ha [3, 10] [%] | pest or weed control at 1000 g/ha [4, 10] [%] | pest or weed control at 1000 g/ha [5, 10] [%] | pest or weed control at 1000 g/ha [6, 10] [%] | pest or weed control at 1000 g/ha [7, 10] [%] | other results |
| --- | --- | --- | --- | --- | --- | --- | --- | --- | --- | --- | --- | --- | --- | --- | --- | --- | --- |
| 209 | 209 | O=P(O)(O)C(O)(C1CCCCN1)P(=O)(O)O (stereo not drawn) [Compound 9] | 30 | 30 | 60 | 30 | 100 | 15 | 100 |  |  |  |  |  |  |  |  |
| 83 | 83 | CC1CCCCN1CC(P(=O)(O)O)P(=O)(O)O (stereo not drawn) [Compound 10] | 50 | 90 | 100 | 85 | 85 | 5 | 100 |  |  |  |  |  |  |  |  |
| 150 | 150 | CC(C)CNCC(P(=O)(O)O)P(=O)(O)O [Compound 12] | 98 | 90 | 100 | 98 | 98 | 70 | 100 |  |  |  |  |  |  |  |  |
| 240 | 240 | CCN(CC)CC(P(=O)(O)O)P(=O)(O)O [Compound 13] |  |  |  |  |  |  |  | 15 | 10 | 40 | 40 | 80 | 5 | 95 |  |
| 316 | 316 | C=CCCNCC(P(=O)(O)O)P(=O)(O)O [Compound 16] |  |  |  |  |  |  |  | 10 | 10 | 80 | 100 | 90 | 20 | 100 |  |
| 32 | 32 | CCCN(CCC)CC(P(=O)(O)O)P(=O)(O)O [Compound 19] |  |  |  |  |  |  |  | 100 | 60 | 100 | 100 | 98 | 10 | 100 |  |
